In patent publication US9055745B2, “Compositions for internal and external insecticides, ovicides, repellents and wound healing” (Natureza, Inc., priority 2011, dated 2015):

Experiments:
fleas = test: Flea contact test using impregnated glass paper (Example XIII, FIG. 15, Table 13); type: in vivo; details: for Mortality of the fleas: 200 μL on glass filter paper, after twenty-four hours, 12 fleas
Procedure: The fatty acids used in the test were mono laurin and lauric acid, while the fatty acid esters used in the test were methyl laurate, i.e. lauric acid methyl ester and ethyl dodecanoate, i.e. lauric acid ethyl ester. Each of these compounds were dissolved in ethanol in concentrations of 0.1% and 1%, and then 200 μL (micro liters) of each solution was placed on glass filter paper (15×150 mm). After the ethanol had evaporated a paper for each concentration of each compound was put into a test tube, and 12 fleas were added per test tube and the top of the test tube was covered. Whether the fleas were alive or dead at was measured after 2 and twenty-four hours. […] Further results are shown below in Table 13.

ctenocephalides felis = test: Efficacy of fatty acid methyl esters in water or acetone on glass paper (Table 14); type: in vivo
Description: Further results are shown below in Table 14, regarding the efficacy of various fatty acid methyl and ester esters against fleas (ctenocephalides felis).

SMILES	5 Hours Alive (ctenocephalides felis; 0.1% in Acetone)	5 Hours Dead (ctenocephalides felis; 0.1% in Acetone)	2 hours Alive (ctenocephalides felis; 0.1% in Acetone)	2 hours Dead (ctenocephalides felis; 0.1% in Acetone)	20 hours Alive (ctenocephalides felis; 0.1% in Acetone)	20 hours Dead (ctenocephalides felis; 0.1% in Acetone)	5 Hours Alive (ctenocephalides felis; 0.1% in Water)	5 Hours Dead (ctenocephalides felis; 0.1% in Water)	2 hours Alive (ctenocephalides felis; 0.1% in Water)	2 hours Dead (ctenocephalides felis; 0.1% in Water)	20 hours Alive (ctenocephalides felis; 0.1% in Water)	20 hours Dead (ctenocephalides felis; 0.1% in Water)	5 Hours Alive (ctenocephalides felis; 1% in Acetone)	5 Hours Dead (ctenocephalides felis; 1% in Acetone)	2 hours Alive (ctenocephalides felis; 1% in Acetone)	2 hours Dead (ctenocephalides felis; 1% in Acetone)	20 hours Alive (ctenocephalides felis; 1% in Acetone)	20 hours Dead (ctenocephalides felis; 1% in Acetone)	5 Hours Alive (ctenocephalides felis; 1% in Water)	5 Hours Dead (ctenocephalides felis; 1% in Water)	also measured
CO[C@H]1CO[C@H]2[C@@H]1OC[C@H]2OC [ISDE - 1% (benign base), isosorbide dimethyl ether]																					% Killed (fleas; after 24 hours): 0%; 2 hours Alive (fleas; number of fleas, 2 hours): 12; 2 hours Dead (fleas; number of fleas, 2 hours): 0; 24 hours Alive (fleas; number of fleas, 24 hours): 12; 24 hours Dead (fleas; number of fleas, 24 hours): 0
CCCCCCCCCCCC(=O)OC [Methyl laurate, lauric acid methyl ester]	15	0	15	0	15	0	15	0	15	0	15	0	0	13	0	13	0	13	11	0	2 hours Alive (ctenocephalides felis; 1% in Water): 11; 2 hours Dead (ctenocephalides felis; 1% in Water): 0; 20 hours Alive (ctenocephalides felis; 1% in Water): 11; 20 hours Dead (ctenocephalides felis; 1% in Water): 0; Mortality of the fleas (fleas; 0.1% in ethanol): 100%; Mortality of the fleas (fleas; 1% in ethanol): 100%
CCCCCCCCC(=O)OC [Methyl nonanoate]	14	0	14	0	14	0	12	0	12	0	12	0	9	0	9	0	9	0	14	0	2 hours Alive (ctenocephalides felis; 1% in Water): 14; 2 hours Dead (ctenocephalides felis; 1% in Water): 0; 20 hours Alive (ctenocephalides felis; 1% in Water): 14; 20 hours Dead (ctenocephalides felis; 1% in Water): 0
CCCCCCCCCC(=O)OC [Methyl decanoate]	12	0	12	0	12	0	11	0	11	0	11	0	14	0	14	0	14	0	19	0	2 hours Alive (ctenocephalides felis; 1% in Water): 19; 2 hours Dead (ctenocephalides felis; 1% in Water): 0; 20 hours Alive (ctenocephalides felis; 1% in Water): 19; 20 hours Dead (ctenocephalides felis; 1% in Water): 0
CCCCCCCC(=O)OC [Methyl octanoate]	16	0	16	0	16	0	10	0	10	0	10	0	8	0	8	0	8	0	5	0	2 hours Alive (ctenocephalides felis; 1% in Water): 5; 2 hours Dead (ctenocephalides felis; 1% in Water): 0; 20 hours Alive (ctenocephalides felis; 1% in Water): 5; 20 hours Dead (ctenocephalides felis; 1% in Water): 0
CCCCCCCCCCCC(=O)OCC [lauric acid ethyl ester]																					Mortality of the fleas (fleas; 0.1% in ethanol): 100%; Mortality of the fleas (fleas; 1% in ethanol): 100%
